Reference: US20230054333A1, “Herbicide Combinations Comprising Glufosinate and Saflufenacil” (BASF SE, priority 2020, published 2023)

What was measured:
Details in all cases: visual scale 0 to 100, mean of three replications
LibertyLink Soybean = test: Greenhouse post emergence treatment, visual herbicidal activity against LibertyLink soybean; assay type: in vivo, Glycine max
Source text: (§1) Synergism can be described as an interaction where the combined effect of two or more compounds is greater than the sum of the individual effects of each of the compounds. The presence of a synergistic effect in terms of percent control, between two mixing partners (X and Y) can be calculated using the Colby equation (Colby, S. R., 1967, Calculating Synergistic and Antagonistic Responses in Herbicide Combinations, Weeds, 15, 21-22):
(§2) When the observed combined control effect is greater than the expected (calculated) combined control effect (E), then the combined effect is synergistic.
(§3) Weeds included Palmer aamaranth (Amaranthus palmen) and crop plants included soybean (Glycine max) with glufosinate tolerance (Liberty Link, BASF) or glyphosate tolerance (Roundup Ready, Bayer). However, the herbicidal effect afforded by the compounds, mixtures or compositions is not limited to these species. The analysis of synergism or antagonism between the mixtures or compositions was determined using Colby's equation.
(§4) Pots with 0.3 L of volume were filled with soil (SunGro Horticulture, Agawam, MA 01001) to grow one plant per pot in the greenhouse until the desired developmental stage. […] During this time, the plants were tended, and their response to the individual treatments was evaluated. […]

Palmer amaranth = test: Greenhouse post emergence treatment, visual herbicidal activity against Palmer amaranth; assay type: in vivo, Amaranthus palmeri
Source text: as §1, §2, §3, §4

Roundup Ready Soybean = test: Greenhouse post emergence treatment, visual herbicidal activity against Roundup Ready soybean; assay type: in vivo, Glycine max
Source text: as §1, §2, §3, §4

SMILES	Herbicidal activity against LibertyLink Soybean (2 DAT) Found (LibertyLink Soybean; Glufosinate 280 g ai/ha)	Herbicidal activity against Palmer amaranth (2 DAT) Found (Palmer amaranth; Glufosinate 280 g ai/ha)	Herbicidal activity against Roundup Ready Soybean (2 DAT) Found (Roundup Ready Soybean; Glufosinate 280 g ai/ha)	Herbicidal activity against LibertyLink Soybean (2 DAT) Found (LibertyLink Soybean; Saflufenacil 1 g ai/ha)	Herbicidal activity against Palmer amaranth (2 DAT) Found (Palmer amaranth; Saflufenacil 1 g ai/ha)	Herbicidal activity against Roundup Ready Soybean (2 DAT) Found (Roundup Ready Soybean; Saflufenacil 1 g ai/ha)
CP(=O)(O)CCC(N)C(=O)O (racemic) [Glufosinate, (2RS)-2-amino-4-[hydroxy(methyl)phosphinoyl]butyric acid]	5	20	35	–	–	–
CC(C)N(C)S(=O)(=O)NC(=O)c1cc(-n2c(=O)cc(C(F)(F)F)n(C)c2=O)c(F)cc1Cl [Saflufenacil]	–	–	–	1	4	0
